Columns and labels:
[1] = test system: monocytes and macrophages that expressed MerTK; settings: addition of UNC569; cited from earlier work
melanoma cells = settings: cited from earlier work
melanoma = melanoma mouse model, therapeutic doses; cited from earlier work
[2] = test system: non-small cell lung cancer (NSCLC) and acute myeloid leukemia (AML) tumor cell lines; settings: cited from earlier work
Colon26 tumor cells = experiment: Colon26 syngeneic colon carcinoma model: tumor volume, time to endpoint, survival; assay type: in vivo, Female BALB/c mice; settings: for median time to endpoint (TTE): endpoint 1000 mm^3 or 45 days; for tumor growth delay (TGD) / tumor growth delay (TGD), percent / mice remaining through day 15: alone or with the antibody in the label; for mice remaining through day 15: n=9
Experimental: Female BALB/c mice were injected with 5×10^5 Colon26 tumor cells in 0% Matrigel sc in flank. The cell injection volume was 0.1 mL/mouse. Mice were between 7 to 10 weeks at the start of the experiment. When tumors reached an average size of 80-120 mm^3, treatment was begun. Body weight was measured five times per week for the first two weeks and then twice per week to the end of the experiment. Tumor volume was measured by caliper measurement twice per week to the end of the experiment. […] Any group with a mean body weight loss of greater than 20% or greater than 10% mortality was stopped dosing. The group was not euthanized and recovery was allowed. Within a group with greater than 20% weight loss, individuals hitting the individual body weight loss endpoint were euthanized. The endpoint of the experiment was a tumor volume of 1000 mm^3 or 45 days, whichever endpoint came first. When the endpoint was reached, the mice were euthanized.
UNC2371 was prepared in salt form and the dosing solution was prepared every day. UNC2371 was prepared in deionized water. All doses represent total substance dosed by weight of compound (including salt weight). […] Dosing solution was prepared at 5 mL/kg (0.100 mL/20 g mouse) and volume was adjusted accordingly for body weight. Dosing solutions of anti-CTLA4 9H10 (BioXcell cat# BE0131) and anti-PD1 RMP1-14 (rat Ig—BioXcell cat# BE0146) were prepared in PBS every week, stored at 4° C., and protected from light. Dosing solution was prepared at 10 mL/kg (0.200 mL/20 g mouse) and volume was adjusted accordingly for body weight.
Mice were randomized into twelve different experimental groups. Group 1 received deionized water via oral gavage (p.o.) three times daily for twenty-one days, starting with two doses on Day 1 (tid×21 first day two doses) and PBS i.p. twice weekly for two weeks (biwk×2). Groups 2-4 received UNC2371 via oral gavage (p.o.) three times daily for twenty-one days, starting with two doses on Day 1 (tid×21 first day two doses). Dosing amounts for UNC2371 for Groups 2-4 were 1, 5 and 15 mg/kg, respectively. Group 5 received anti-PD1 mAb at a dosage of 5 mg/kg i.p. biwk×2. Group 6 received anti-CTLA4 mAb at a dosage of 5 mg/kg on Day 1 and at 2.5 mg/kg on Days 4 and 7. Groups 7-9 received UNC2371 (p.o. tid×21, first day two doses) at 1, 5 and 15 mg/kg, respectively, in combination with anti-PD1 (5 mg/kg i.p. biwk×2). Groups 10-12 received UNC2371 (p.o. tid×21, first day two doses) at 1, 5 and 15 mg/kg, respectively, in combination with anti-CTLA4 (5 mg/kg on Day 1 and at 2.5 mg/kg on Days 4 and 7).

B16 melanoma = B16 melanoma mouse model with radiation therapy (XRT), secondary tumor; assay type: in vivo
Experimental: MerTK ihibitors were analyzed in combination with immune checkpoint inhibitors in a B16 melanoma mouse model for their effect on secondary tumor growth in mice treated with radiation therapy (XRT). XRT is performed according to the following schematic:
Briefly, XRT (8 Gy) was given on days 9, 10, and 11. UNC2371 was given at a dose of 50 mg/kg, by oral gavage, qd, initiated at Day 8. Anti-PD1 was given at 200 μg IP on days 6, 9, and 12. Eight mice were analyzed in each treatment arm (XRT, MerTKi, anti-PD1, anti-PD1+MerTKi, XRT+MerTKi, XRT+anti-PD1, and XRT+anti-PD1+MerTKi). Tumors were implanted on both flanks, and the secondary tumor was shielded during XRT treatment. The secondary tumor was assessed for impact of abscopal effect.

[3] = test system: myeloid-derived suppressor cells (MDSCs); experiment: mRNA expression in myeloid-derived suppressor cells from B16/F10 tumor-bearing mice; assay type: in vivo, mouse
Experimental: To evaluate the effect of MerTK inhibitors on myeloid-derived suppressor cells (MDSCs), C57BL/6 B16/F10 melanoma cells were implanted into syngeneic mice and tumors are allowed to form. Once tumors reached 5 mm in diameter, mice received either vehicle (0.9% NaCl) or 10, 25 or 50 mg/kg UNC2371 for 5 days. Initial experiments determined the lowest dose capable of altering the immune system. Myeloid-derived suppressor cells (MDSCs) were isolated from the spleens of tumor-bearing mice by fluorescence activated cell sorting using the cell surface markers CD11b^+Ly6G^−Ly6C^high and G-MDSCs by CD11b^+Ly6G^highLy6C^low. MDSCs' suppressive capabilities were assessed by the level of RNA for M2 capabilities.

[4] = test system: Colon26 murine colon carcinoma; experiment: Flow cytometry of immune cells in tumor and PBMCs, Colon26 model, Day 8; assay type: in vivo, mouse
Experimental: Tumor samples and blood samples were analyzed by flow cytometry to determine the effect of a MerTK inhibitor on immune cells alone or in combination with an immune checkpoint inhibitor in the Colon26 murine colon carcinoma mouse model. In the following example, the MerTK inhibitor UNC2371 was examined in combination with the immune checkpoint inhibitors anti-CTLA4 and anti-PD1. Experiments were performed as described in Example 3 above, except that mice in each group were euthanized at Day 8, and tumor tissue and blood samples were collected. Blood samples were collected by terminal cardiac puncture under isoflurane anesthesia. Blood was processed for peripheral blood monocyte cells (PBMCs; enriches the white cell population). Flow cytometry was conducted to identify specific white cell populations in both the PBMCs as well as the tumor cells. Tumor samples were preserved (single cell suspension) and maintained at −4° C.

[5] = test system: Colon26 murine colon carcinoma; experiment: Immunohistochemistry of Colon26 tumors (CD3, F4/80, survivin); assay type: in vivo, mouse
Experimental: Tumors from 2 to 3 mice per treatment group were formalin fixed and paraffin embedded. The samples were analyzed by immunohistochemistry for several biological markers (data not shown). T cells (cell marker=CD3) were increased in the 1 mg/kg UNC2371 (low dose) monotherapy arm and 1 mg/kg UNC2371/anti-CTLA4 combination treatment arm compared to vehicle. […] Macrophages (cell marker F4/80) were highest in group 6 (anti-CTLA4) and group 10 (UNC2371 1 mg/kg+anti-CTLA4) with similar staining seen in these two groups. […] Tumors were also analyzed for survivin staining.

AML = settings: cited from earlier work

## CCCCNc1ncc2c(-c3ccc(F)cc3)nn(CC3CCC(N)CC3)c2n1 (stereo not drawn) [UNC569]
[1]
  production of inflammatory cytokines: restored

## CCCCNc1ncc2c(-c3ccc(S(=O)(=O)N4CCOCC4)cc3)nn(C3CCC(O)CC3)c2n1 (stereo not drawn) [UNC1062]
Melanoma cells
  activation of MERTK-mediated downstream signaling: reduced
  apoptosis in culture: induced
  colony formation in soft agar: reduced
  invasion of melanoma cells: inhibited

## CCCCNc1ncc2c(-c3ccc(CN4CCN(C)CC4)cc3)cn(C3CCC(O)CC3)c2n1 (stereo not drawn) [UNC2025A]
melanoma
  survival: survival advantage
[2]
  colony formation: can inhibit colony formation

## CN1CCN(Cc2ccc(-c3cn(C4CCC(O)CC4)c4nc(NCCC5CC5)ncc34)cc2)CC1 (stereo not drawn) [UNC2371]
Colon26 tumor cells; anti-CTLA4, anti-PD1 and low dose UNC2371 as single agents, FIGS. 16 to 18
  single agent efficacy: failed to demonstrate single agent efficacy
Colon26 tumor cells; high dose UNC2371 15 mg/kg TID p.o. x21, alone or with the antibody in the label
  median time to endpoint (TTE): 20.7 days
Colon26 tumor cells; high dose UNC2371 15 mg/kg TID
  tumor growth delay (TGD): 6.9 days
  tumor growth delay (TGD), percent: 50%
  mice remaining through day 15: 8/9
Colon26 tumor cells; low dose UNC2371 1 mg/kg TID p.o. x21, alone or with the antibody in the label
  median time to endpoint (TTE): 14.0 days
Colon26 tumor cells; low dose UNC2371 1 mg/kg TID
  tumor growth delay (TGD): 0.2 days
  tumor growth delay (TGD), percent: 1%
  mice remaining through day 15: 3/9
Colon26 tumor cells; mid dose UNC2371 5 mg/kg TID p.o. x21, alone or with the antibody in the label
  median time to endpoint (TTE): 16.7 days
Colon26 tumor cells; mid dose UNC2371 5 mg/kg TID
  tumor growth delay (TGD): 2.9 days
  tumor growth delay (TGD), percent: 21%
  mice remaining through day 15: 6/9
B16 melanoma; UNC2371 50 mg/kg oral gavage qd from Day 8, anti-PD1 200 μg IP days 6, 9, 12, FIG. 22A
  secondary tumor volume compared with XRT alone: more effective than XRT alone
B16 melanoma; XRT+UNC2371 vs XRT, FIG. 22C
  tumor derived myeloid-derived suppressor cells (MDSCs): decrease
B16 melanoma; with XRT 8 Gy days 9, 10, 11, UNC2371 50 mg/kg qd, anti-PD1 200 μg IP, FIG. 22B
  abscopal effect on the secondary tumor: enhanced the abscopal effect
[3]; 25 mg/kg UNC2371 for 5 days vs vehicle control
  arginase mRNA expression: decrease
[3]; 10, 25, or 50 mg/kg UNC2371 for 5 days vs vehicle control
  iNOS (inducible nitric oxide synthase) mRNA expression: decrease
[3]; 10 or 25 mg/kg UNC2371 for 5 days vs vehicle control
  IDO (indoleamine 2,3-dioxygenase) mRNA expression: decrease
[4]; Day 8, FIG. 19, combination: low dose or medium dose UNC2371
  CD8+ cells in the tumor: increase
[4]; Day 8, FIG. 20
  Natural Killer (NK) cells in the tumor: increase
[5]
  T cell (CD3 marker) penetration into the core of the tumor: notable increase
[5]; 1 mg/kg UNC2371 (low dose)
  T cells (cell marker CD3) in tumor compared to vehicle: increased
[5]; low dose 1 mg/kg UNC2371
  survivin staining: markedly decreased staining

## CCCCNc1ncc2c(-c3ccc(S(=O)(=O)N4CCOCC4)cc3)cn(C3CCC(O)CC3)c2n1 (stereo not drawn) [UNC 1666]
AML
  myeloid survival in AML: decreases
  oncogenic signaling in AML: decreases

Reference: patent publication US20180296561A1, “The Methods For Treatment Of Tumors” (The University of North Carolina at Chapel Hill, priority 2015, published 2018)
